Results: patent US7914821B2, “Pharmaceutical composition for prevention and/or treatment of bone loss” (KO DA Pharmaceuticals Co., Ltd., priority 2008, dated 2011)

Key:
[1] = tested on: Bone cells; assay: ALP activity of bone cells; type: cell-based, rat; details: for ALP activity of the bone cells: 0.3, 1, 3, 10 μM, FIG. 8A
Text: Rat primary osteoblast was isolated from the parietal bone of gestation day 18 embryos of Sprague-Dawley rats. After being slaughtered, the embryo rats were obtained from the uteruses of the rats, and calvarium was isolated from the embryo rats. […] The digestion step was repeated five times. […] When cells were attached and confluence, they were sub-cultured, which was called “passage 2 (P2)”. The passage was for analogizing. 2 to 5 passage cells were used for the experiments. Bone cells were treated with 0.3, 1, 3, and 10 μM of imperatorin and bergapten, respectively. After treatment, the osteoblast cells were digested in 0.2% NP-40 solution, and then centrifuged at 1500 g for 5 minutes. The ALP activity of the osteoblast cells was tested using an ALP kit (Roche Applied Science). […] Referring to FIG. 8A, imperatorin and bergapten both increased the ALP activity of the bone cells.

[2] = tested on: p38 mutant cell (DN-p38); assay: ALP activity in p38 mutant cell; type: cell-based; details: 10 μM; FIG. 11D
Description: (§1) Bone cells were cultured and treated with (1) 10 μM SB203580, (2) 10 μM PD98059, (3) 10 μM imperatori, (4) 10 μM bergapten, (5) 10 μM imperatorin+SB203580, (6) 10 μM bergapten+SB203580, (7) 10 μM imperatorin+PD98059 ? (8) 10 μM bergapten+PD98059 for 48 hrs. After treatment, the bone cells were lysed in 0.2% […] solution and centrifuged at 1500×g for 5 minutes. The supernatant was analyzed by an ALP kit such as described above to obtain the ALP activity. The ALP activity in the control group which was treated with 0.1% DMSO was defined as 100%. Referring to FIG. 11C, p38 inhibitor (SB203580) and ERK inhibitor (PD98059) suppressed the imperatorin and bergapten induced-ALP activity.
(§2) The same procedure carried out in Example 20 was repeated. The experiment group used alternative cells and treatment comprising: (1) DN-p38 cell, (2) DN-ERK cell, (3) DN-p38 cell+10 μM imperatorin, (4) DN-p38 cell+10 μM bergapten, (5) DN-ERK cell+10 μM imperatorin, (6) DN-ERK cell+10 μM bergapten, (7) normal bone cell+10 μM imperatorin, and (8) normal bone cell+10 μM bergapten. The ALP activity in the control group which was treated with 0.1% DMSO was defined as 100%. Referring to FIG. 11D, the ALP activity was not induced in p38 mutant cell (DN-p38) and ERK mutant cell (DN-ERK) by imperatorin and bergapten.

[3] = tested on: ERK mutant cell (DN-ERK); assay: ALP activity in ERK mutant cell; type: cell-based; details: 10 μM; FIG. 11D
Description: as §1, §2

[4] = tested on: EPK protein; assay: Phosphorylation of EPK protein (western blot); type: cell-based, rat; details: 10 μM, 1, 3, 6, 12, 24 hrs; FIG. 10
Description: (§3) Rat primary osteoblast was isolated from the parietal bone of gestation day 18 embryos of Sprague-Dawley rats. After being slaughtered, the embryo rats were obtained from the uteruses of the rats, and calvarium was isolated from the embryo rats. Parietal bone was cut from the calvarium and digested by 0.1% collagenase for 20 minutes to release the bone cells from the bone tissue. The digestion step was repeated five times. The collected bone cells were cultured in α-MEM containing 1% penicillin-streptomycin and 10% FBS in a humidified atmosphere of 5 percent carbon dioxide. When cells were attached and confluence, they were sub-cultured, which was called “passage 2 (P2)”. The passage was for analogizing. 2 to 5 passage cells were used for the experiments.
(§4) Bone cells was cultured in 6-well plate and treated with 10 μM of imperatorin and bergapten for 1, 3, 6, 12, and 24 hrs, respectively. […] Following incubation with the secondary antibody, the membrane was washed three times with PBST, and detected by an […] chemiluminescence using an ECL blotting substrate according to the manufacturer's instructions. […]

[5] = tested on: Bone cells; assay: Collagen secretion in bone cells; type: cell-based, rat; details: for collagen secretion in the bone cells: 0.3, 1, 3, 10 μM, FIG. 8B; for increase of collagen content / collagen synthesis: 'at least' figure
Description: as §3
Bone cells were treated with 0.3, 1, 3, and 10 μM of imperatorin and bergapten, respectively. After treatment, the cells were lysed in 6N HCl at 116° C. for 16 hrs, and dried in a vacuum. The resultant residue was dissolved in an equal volume of water, and then absorbance was measured at […]. The collagen secretion in the control group which was treated with 0.1% DMSO was defined as 100%. Referring to FIG. 8B, imperatorin and bergapten both increased the collagen secretion in the bone cells

[6] = tested on: SMADs; assay: Phosphorylation of SMADs (western blot); type: cell-based, rat; details: 10 μM, 1, 3, 6, 12, 24 hrs; FIG. 10
Description: as §3, §4

[7] = tested on: Male Sprague-Dawley rats; assay: Animal experiment: local administration into the tibia; type: in vivo, rat; details: for bone volume of tibia metaphysis / BMC / BMD / BV/TV (bone volume/tissue volume): 30 μM every day for a week through needle into tibia; for bone volume of tibia metaphysis: FIG. 12; for increase of bone mineral content / increase of bone mineral density: 'at least' figure, matches Table 3 vs control; for BMC / BMD / BV/TV (bone volume/tissue volume): tibia
Description: Male Sprague-Dawley rats (weighing 78 to 90 grams, at three weeks of age) were anesthetized with […] of trichloroacetaldehyde monohydrate. […] needle was sterilized and injected into the tibia of the rats. One day after the injection, the rats were administered with normal saline as the control, 30 μM imperatorin, and 30 μM bergapten every day for a week through the needle, respectively. Then, the rats were slaughtered after the last administration, and the tibias were immediately isolated after slaughtering and subject to BMD, BMC, and histochemical examination. Referring to FIG. 12, the bone volume of tibia metaphysis was increased by imperatorin and bergapten.

[8] = tested on: p38; assay: Phosphorylation of p38 (western blot); type: cell-based, rat; details: 10 μM, 1, 3, 6, 12, 24 hrs; FIG. 10
Description: as §3, §4

SMILES	ALP activity of the bone cells [1]	increase of alkaline phosphatase (ALP) activity ([1]; 'at least' figure)	ALP activity in p38 mutant cell (DN-p38) [2]	ALP activity in ERK mutant cell (DN-ERK) [3]	phosphorylation of EPK protein [4]	collagen secretion in the bone cells [5]	increase of collagen content / collagen synthesis [5]	phosphorylation of SMADs [6]	bone volume of tibia metaphysis [7]	increase of bone mineral content [7]	increase of bone mineral density [7]	BMC [7]	BMD [7]	BV/TV (bone volume/tissue volume) [7]	phosphorylation of p38 [8]	increase of alkaline phosphatase (ALP) activity ([1]; 'preferably ... at least' figure)
COc1c2ccoc2cc2oc(=O)ccc12 [bergapten]	increased	≥ 80.0%	not induced	not induced	induced	increased	at least 100%	induced	increased	≥ 33.7%	at least 12.2%	0.111 ± 0.003 g	0.101 ± 0.002 g/mL	18.1 ± 0.4 %	induced	
CC(C)=CCOc1c2occc2cc2ccc(=O)oc12 [imperatorin]	increased	≥ 6.0%	not induced	not induced	induced	increased	at least 102.0%	induced	increased	≥ 28.91%	at least 12.22%	0.107 ± 0.003 g	0.101 ± 0.002 g/mL	17.6 ± 0.6 %	induced	at least 95%
